Experimental data taken from US6846953B1, “Aromatic amides” (Warner Lambert Company, priority 1999, dated 2005).

Columns and labels:
[1] = test system: Carrageenin induced thermal hyperalgesia in the rat; test: Carrageenin induced hyperalgesia, rat paw pressure test; format: in vivo; details: po, 30 mg/kg p.o., 2 h post dose, MPE = maximum possible effect, baseline value prior to carrageenin
Method: (§1) In another test, compounds were evaluated for their ability to reduce the hyperalgesia effects of carrageenin in the following assay: nociceptive pressure thresholds were measured in the rat paw pressure test using an analgesimeter (Randall L. O. and Selitto J. J., A method for measurement of analgesic activity on inflamed tissue. Arch. Int. Pharmacodyn 4: 409-419, 1957). Male Sprague-Dawley rats (70-90 g) were trained on this apparatus before the test day. Pressure was gradually applied to the hind paw of each rat Nociceptive thresholds were determined as the pressure (g) required to elicit paw withdrawal. A cutoff point of 250 g was used to prevent any tissue damage to the paw. On the test day, 2 to 3 baseline measurements were taken before animals were administered 100 μl of 2% aqueous carrageenin by intraplantar injection into the right hind paw. […]

[2] = test system: Carrageenin induced hyperalgesia in the rat; test: as above; format: in vivo; details: po, 30 mg/kg p.o., 1 h post dose, MPE = maximum possible effect, baseline value prior to carrageenin
Method: as §1

Structure (SMILES) | inhibition in vivo at 30 mg/kg [1] [%] | inhibition in vivo at 30 mg/kg [2] [%]
CCC(=O)N(CCN(CC)CC)c1ccc(Cl)c2ccccc12 [Example 1, N-Propionyl, N-(2-Diethylaminoethyl)-1-amino-4-chloronaphthalene] | 22.2 | 51.5
CCC(=O)N(CCNCc1ccccc1)c1cccc2ccccc12 [Example 12, N-Propionyl, N-(2-(N-benzyl)-aminoethyl)-1-aminonaphthalene] | 3.13 | 29.7
CCC(=O)N(CCN1CCOCC1)c1ccc(Cl)c2ccccc12 [Example 4] | 30.7 | 44.8
CCC(=O)N(c1ccc(Cl)c2ccccc12)C(C)CN(CC)CC (centres unmarked) [Example 5, N-Propionyl, N-(2-(3-diethylamino-propyl))-1-amino-4-chloronaphthalene] | 27.5 | 23.3
CCC(=O)N(CCN(CC)CC)c1cccc2c1-c1ccccc1C2=O [Example 2, N-Propionyl, N-(2-Diethylaminoethyl)-4-amino-9-fluorenone] | 6.4 | 1.1
C=CC(=O)N(CCN(CC)CC)c1ccc(Cl)c2ccccc12 [Example 14, N-Acryloyl, N-(2-Diethylaminoethyl)-1-amino-4-chloronaphthalene] | 0.9 | 15.1
CCC(=O)N(CCN(CC)CC)c1ccc(Br)c2ccccc12 [Example 3, N-Propionyl, N-(2-Diethylaminoethyl)-1-amino-4-bromonaphthalene] | 7.7 | -2.6
